From article PMC11649115, “In vitro safety evaluation of dopamine D3R antagonist, R-VK4-116, as a potential medication for the treatment of opioid use disorder” (PLOS ONE, 2024)
Values joined by “and” are separate entries in the source; they are usually repeats but may differ in a detail not shown here. Equal values may be shown once. Read-outs that look alike come from different tables or passages of the source.

How the values were obtained:
CYP1A2 = molecular target: T1, CYP1A2 (Homo sapiens, UniProt P05177); assay: CYP inhibition in human liver microsomes; conditions: human liver microsomes
T1 sequence (P05177 1-516): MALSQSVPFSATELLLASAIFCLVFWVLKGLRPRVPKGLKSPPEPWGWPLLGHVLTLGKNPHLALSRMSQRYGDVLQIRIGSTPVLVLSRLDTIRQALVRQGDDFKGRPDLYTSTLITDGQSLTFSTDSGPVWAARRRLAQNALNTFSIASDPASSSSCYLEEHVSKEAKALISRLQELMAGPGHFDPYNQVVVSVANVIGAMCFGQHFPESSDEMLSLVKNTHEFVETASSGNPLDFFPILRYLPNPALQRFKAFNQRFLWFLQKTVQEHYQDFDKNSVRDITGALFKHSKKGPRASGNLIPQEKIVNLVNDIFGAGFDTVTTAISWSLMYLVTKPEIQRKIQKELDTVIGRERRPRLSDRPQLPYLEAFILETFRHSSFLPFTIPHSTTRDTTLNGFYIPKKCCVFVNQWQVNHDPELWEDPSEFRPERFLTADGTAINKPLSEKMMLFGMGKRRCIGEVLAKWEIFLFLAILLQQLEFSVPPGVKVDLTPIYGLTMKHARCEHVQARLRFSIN

[1] = Plasma protein binding, Sephadex G-25 gel filtration; format: in vitro ADME, human; conditions: human, plasma; for fraction unbound at 2 h, 0.5 μM: human plasma, nominal 0.5 μM
Description: (§1) The gel filtration used solid-phase extraction columns containing hydrated gel filtration beads (Sephadex G-25). […] In this method, the amount of analyte accompanying the proteins (i.e., protein-bound R-VK4-116) before and after filtration was assayed for analyte concentration by LC-MS/MS.

human plasma proteins = assay: as above; format: in vitro ADME; conditions: human plasma
Description: as §1

24 receptor targets = assay: Cellular and nuclear receptor functional assays, agonist and antagonist effect (panel); format: cell-based; conditions: 10 μM
Description: The purpose of this study was to provide a first step in preliminary safety assessments by providing early identification of potential off-target interactions for the optimization of safety margins. This study was conducted by Eurofins Cerep (France) and Eurofins Discovery (St. Charles, MO). R-VK4-116 was tested in enzyme and uptake assay with 10 enzyme targets (Figs 4 and 5 in S1 File), and cellular and nuclear receptor functional assays with 24 receptor targets (Figs 5 and 6 in S1 File). Compound enzyme inhibition effect was calculated as a % inhibition of control enzyme activity. The cellular agonist effect was calculated as a % of the control response to a known reference agonist for each target, and the cellular antagonist effect was calculated as a % inhibition of the control reference agonist response for each target.

CYP2C9 = CYP2C9 (Homo sapiens, UniProt P11712); assay: CYP inhibition in human liver microsomes; conditions: human liver microsomes
CYP2C9, sequence (P11712 whole entry): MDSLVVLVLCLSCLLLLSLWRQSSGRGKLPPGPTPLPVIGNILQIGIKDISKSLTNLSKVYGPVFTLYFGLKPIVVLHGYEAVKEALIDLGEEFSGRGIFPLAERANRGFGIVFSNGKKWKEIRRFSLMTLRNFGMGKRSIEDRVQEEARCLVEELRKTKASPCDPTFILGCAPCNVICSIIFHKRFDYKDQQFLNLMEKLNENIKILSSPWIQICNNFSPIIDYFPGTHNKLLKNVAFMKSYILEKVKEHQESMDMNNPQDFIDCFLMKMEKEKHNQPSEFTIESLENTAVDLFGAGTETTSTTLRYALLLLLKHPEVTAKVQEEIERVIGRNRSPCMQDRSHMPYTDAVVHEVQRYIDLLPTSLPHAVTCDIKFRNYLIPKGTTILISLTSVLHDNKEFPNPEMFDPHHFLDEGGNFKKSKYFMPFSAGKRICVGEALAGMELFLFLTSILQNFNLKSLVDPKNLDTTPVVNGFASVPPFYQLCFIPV

CYP3A4 = CYP3A4 (Homo sapiens, UniProt P08684); assay: in vitro; conditions: microsomes
CYP3A4, sequence (P08684 2-503): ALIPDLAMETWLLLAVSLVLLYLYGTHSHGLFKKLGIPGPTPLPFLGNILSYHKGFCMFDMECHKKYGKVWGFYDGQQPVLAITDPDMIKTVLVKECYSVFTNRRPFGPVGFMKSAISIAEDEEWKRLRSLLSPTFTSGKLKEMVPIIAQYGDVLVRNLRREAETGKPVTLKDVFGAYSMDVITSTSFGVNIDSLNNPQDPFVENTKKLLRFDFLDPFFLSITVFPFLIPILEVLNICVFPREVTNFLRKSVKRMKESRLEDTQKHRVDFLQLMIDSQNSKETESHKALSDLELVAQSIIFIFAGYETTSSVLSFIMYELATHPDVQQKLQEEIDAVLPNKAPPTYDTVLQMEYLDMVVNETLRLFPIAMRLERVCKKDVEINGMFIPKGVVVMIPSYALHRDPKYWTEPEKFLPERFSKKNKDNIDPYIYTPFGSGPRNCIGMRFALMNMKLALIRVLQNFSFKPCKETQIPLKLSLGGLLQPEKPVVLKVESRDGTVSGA

[2] = system: 403 non-mutant human kinases; conditions: screening concentration 1 µM, S-score with % Control <35
Description: (§2) Briefly, E. coli host derived from the BL21 strain were grown to log-phase and infected with kinase-tagged T7 phage and incubated with shaking at 32°C until lysis. The lysates were centrifuged and filtered to remove cell debris. The remaining kinases were produced in HEK-293 cells and subsequently tagged with DNA for qPCR detection. Streptavidin-coated magnetic beads were treated with biotinylated small molecule ligands to generate affinity resins for kinase assays. The liganded beads were blocked with excess biotin and washed to remove unbound ligand and to reduce non-specific phage binding. […] Selectivity Score (S-score) was a quantitative measure of compound selectivity. […] The binding constants (Kds) were also determined with a standard dose-response curve using the Hill equation and Levenberg-Marquardt algorithm [24, 25].

TNK1 = molecular target: T2, TNK1 (Homo sapiens, UniProt Q13470); assay: KINOMEscan binding (% Ctrl, Kd)
T2 construct: made in house; host or cells: E. coli BL21-derived host (T7 phage) or HEK-293
T2 sequence (Q13470 1-666): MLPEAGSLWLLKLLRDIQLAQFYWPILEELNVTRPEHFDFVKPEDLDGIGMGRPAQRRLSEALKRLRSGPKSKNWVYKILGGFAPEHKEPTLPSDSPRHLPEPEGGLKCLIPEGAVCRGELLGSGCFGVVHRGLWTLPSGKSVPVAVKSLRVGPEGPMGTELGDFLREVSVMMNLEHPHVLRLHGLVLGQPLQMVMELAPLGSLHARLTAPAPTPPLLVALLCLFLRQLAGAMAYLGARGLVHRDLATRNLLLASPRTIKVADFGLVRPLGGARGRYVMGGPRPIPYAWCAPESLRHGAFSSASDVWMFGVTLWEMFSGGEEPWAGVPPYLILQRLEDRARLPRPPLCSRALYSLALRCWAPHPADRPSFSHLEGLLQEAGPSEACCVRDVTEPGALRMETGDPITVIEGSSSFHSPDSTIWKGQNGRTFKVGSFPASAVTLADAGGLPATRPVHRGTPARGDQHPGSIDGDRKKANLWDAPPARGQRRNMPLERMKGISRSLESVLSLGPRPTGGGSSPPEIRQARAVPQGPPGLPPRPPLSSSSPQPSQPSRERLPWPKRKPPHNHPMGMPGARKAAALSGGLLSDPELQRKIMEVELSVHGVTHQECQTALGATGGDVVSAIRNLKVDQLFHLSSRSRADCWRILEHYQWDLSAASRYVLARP
Description: as §2

[3] = CYP activity (% of Control) 3A4 (Midazolam)
[4] = CYP activity (% of Control) 3A4 (Testosterone)

In the case of CCc1cc(Cl)c(OC)c(N2CCN(CC(O)CCNC(=O)c3cc4ccccc4[nH]3)CC2)c1 (stereo not drawn) [R-VK4-116, N-(4-(4-(3-chloro-5-ethyl-2-methoxyphenyl)piperazin-1-yl)-3-hydroxybutyl)-1H-indole-2-carboxamide], the CYP1A2 inhibition (CYP1A2; up to 100 μM) is reported as “did not inhibit CYP significantly”, the activity at 20 min, 0.1 µM (CYP1A2; human, probe phenacetin) is reported as 93.7 ± 5.5% and the activity at 20 min, 0.3 µM (CYP1A2; human, probe phenacetin) is reported as 87.7 ± 2.4%. It also gave an activity at 20 min, 1 µM (CYP1A2; human, probe phenacetin) of 89.9 ± 0.9%, an activity at 20 min, 3 µM (CYP1A2; human, probe phenacetin) of 95.7 ± 5.2% and an activity at 20 min, 10 µM (CYP1A2; human, probe phenacetin) of 96.3 ± 4.7%. It also gave an activity at 20 min, 30 µM (CYP1A2; human, probe phenacetin) of 88.7 ± 1.9%, an activity at 20 min, 60 µM (CYP1A2; human, probe phenacetin) of 88.2 ± 2.3% and an activity at 20 min, 100 µM (CYP1A2; human, probe phenacetin) of 94 ± 5.2%. For the same compound, the fraction unbound at 2 h, 0.5 μM ([1]; read-out: % Bound (converted)) was 0.026, the fraction unbound at 2 h, 0.5 μM ([1]; read-out: % Bound, Mean ± SD (converted)) was 0.028 and the fraction unbound at 2 h ([1]; rat, dog, range over human, rat and dog plasma, read-out: bound to plasma proteins) was 0.07 to 0.17. The “% Bound” value (human plasma proteins; nominal 0.5 μM) was 96.9%, the “Ratio [R-VK4-116] Before Filtration / Eluate, Mean ± SD” value (human plasma proteins; nominal 0.5 μM) was 0.988 ± 0.13 and the “[R-VK4-116] Before Filtration” value (human plasma proteins; nominal 0.5 μM) was 0.550 µM and 0.597 µM and 0.598 µM. The “[R-VK4-116] In Sephadex G-25 Eluate” value (human plasma proteins; nominal 0.5 μM) was 0.520 µM and 0.715 µM and 0.557 µM, the “% Bound” value (human plasma proteins; nominal 1 μM) was 92.5% and 81.6% and 83.7% and the “Ratio [R-VK4-116] Before Filtration / Eluate” value (human plasma proteins; nominal 1 μM) was 1.50 and 1.62 and 1.55. For the same compound, the “Ratio [R-VK4-116] Before Filtration / Eluate, Mean ± SD” value (human plasma proteins; nominal 1 μM) was 1.56 ± 0.06, the “[R-VK4-116] Before Filtration” value (human plasma proteins; nominal 1 μM) was 0.923 µM and 0.995 µM and 1.02 µM and the “[R-VK4-116] In Sephadex G-25 Eluate” value (human plasma proteins; nominal 1 μM) was 0.614 µM and 0.615 µM and 0.657 µM. The “agonist and antagonist effects for most of the targets” value (24 receptor targets) was “did not exhibit agonist and antagonist effects”, the CYP2C9 inhibition (CYP2C9; up to 100 μM) was “did not inhibit CYP significantly” and the activity at 20 min, 0.1 µM (CYP2C9; human, probe diclofenac) was 89.5 ± 9.2%. The activity at 20 min, 0.3 µM (CYP2C9; human, probe diclofenac) was 79 ± 2.7%, the activity at 20 min, 1 µM (CYP2C9; human, probe diclofenac) was 80.9 ± 2.2% and the activity at 20 min, 3 µM (CYP2C9; human, probe diclofenac) was 92.3 ± 10.1%. It also gave an activity at 20 min, 10 µM (CYP2C9; human, probe diclofenac) of 91.5 ± 7.3%, an activity at 20 min, 30 µM (CYP2C9; human, probe diclofenac) of 80.9 ± 0.9% and an activity at 20 min, 60 µM (CYP2C9; human, probe diclofenac) of 81.8 ± 3.1%. For the same compound, the activity at 20 min, 100 µM (CYP2C9; human, probe diclofenac) was 93.4 ± 8.1%, the activity at 20 min, 0.1 µM (CYP3A4; [3]) was 97.5 ± 3.9% and the activity at 20 min, 0.3 µM (CYP3A4; [3]) was 93.9 ± 2.4%. It also gave an activity at 20 min, 1 µM (CYP3A4; [3]) of 95.3 ± 0.9%, an activity at 20 min, 3 µM (CYP3A4; [3]) of 95.6 ± 4.2% and an activity at 20 min, 10 µM (CYP3A4; [3]) of 96.9 ± 2%. For the same compound, the activity at 20 min, 30 µM (CYP3A4; [3]) was 92.2 ± 0.7%, the activity at 20 min, 60 µM (CYP3A4; [3]) was 92.6 ± 1% and the activity at 20 min, 100 µM (CYP3A4; [3]) was 96.9 ± 3.2%. It also gave an activity at 20 min, 0.1 µM (CYP3A4; [4]) of 96.5 ± 3.6%, an activity at 20 min, 0.3 µM (CYP3A4; [4]) of 93.2 ± 3.8% and an activity at 20 min, 1 µM (CYP3A4; [4]) of 94.2 ± 2.4%. It also gave an activity at 20 min, 3 µM (CYP3A4; [4]) of 92.8 ± 4.8%, an activity at 20 min, 10 µM (CYP3A4; [4]) of 93.9 ± 2.1% and an activity at 20 min, 30 µM (CYP3A4; [4]) of 94.2 ± 1.5%. For the same compound, the activity at 20 min, 60 µM (CYP3A4; [4]) was 92.1 ± 1.1%, the activity at 20 min, 100 µM (CYP3A4; [4]) was 95.5 ± 3.7% and the Selectivity score [2] was 0.012. The Kd (TNK1; 11-point curve 0.001 to 10 μM, read-out: binding constant (Kd)) was > 10 µM, the remaining binding at 1 µM (TNK1; read-out: %Control) was < 35% and the remaining binding at 1 µM (TNK1; read-out: Gene (S-score with % control): TNK1) was 17%.
